According to PubChem BioAssay (NCI):
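Assay format: 96-well plates, 48-hour exposure. At the GI50, growth is halved. Definition used: TGI = concentration required for complete inhibition of growth.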

Key:
Test in all cases: growth of human tumour cells (NCI), 48 h
[1] = system: SNB-75 CNS
[2] = system: MALME-3M melanoma
[3] = system: M14 melanoma
[4] = system: SW-620 colon
[5] = system: HOP-62 NSCLC
[6] = system: EKVX NSCLC
[7] = system: SF-295 CNS
[8] = system: U251 CNS
[9] = system: SR leukemia
[10] = system: HCT-15 colon
[11] = system: NCI/ADR-RES ovarian
[12] = system: OVCAR-8 ovarian
[13] = system: DU-145 prostate

SMILES	TGI [1] [µM]	TGI [2] [µM]	TGI [3] [µM]	TGI [4] [µM]	TGI [5] [µM]	TGI [6] [µM]	TGI [7] [µM]	TGI [8] [µM]	TGI [9] [µM]	TGI [10] [µM]	TGI [11] [µM]	TGI [12] [µM]	TGI [13] [µM]	GI50 [13] [µM]	GI50 [3] [µM]	GI50 [5] [µM]	GI50 [7] [µM]	GI50 [8] [µM]	GI50 [11] [µM]	GI50 [12] [µM]
CC[n+]1[b-](C(C)(C)C)n(/N=C(\C)C(C)(C)C)[b-](C(C)(C)C)[n+]1CC	> 100	> 100	> 100	> 100	> 100	> 100	> 100	> 100	56.8	> 100	> 100	> 100								
Cc1cc(S(=O)(=O)Nc2nc(N)n(C)n2)c(S)cc1Cl	> 10	> 10	> 10	> 10	> 10	> 10	> 10	> 10		> 10	> 10	> 10	> 10							
Nc1ncnc2c1ncn2CC(OCP(=O)(O)O)Oc1ccccc1 (stereo not given)	> 100		> 100	> 100	> 100	> 100	> 100	> 100		> 100	> 100		> 100							
Cc1sc(N=Nc2c(O)[nH]c3ccccc23)nc1-c1ccccc1	47		65.2	71.4	33.1	31.6	29.1	34.3		27.9	44.7	40.2	24.8							
C[n+]1c2ccccc2c(NC(CCC(N)=O)C(=O)O)c2ccccc21 (stereo not given)	> 100	> 100	> 100	> 100	> 100	> 100	> 100	> 100	> 100	> 100		> 100								
CCCCCCCCCCCCCCCCCC(=O)NCCCNCCCNC(=O)CCCCCCCCCCCCCCCCC		> 100	> 100	> 100	> 100		> 100	> 100		> 100		> 100								
Cc1ccc(N2C(=O)/C(=c3\s/c(=C(/N)O)c(=N)n3-c3ccccc3)SC2=S)cc1	28			> 100	> 100		> 100	> 100				> 100								
Cn1ncc2c(NCCc3ccccc3)nc(Cl)nc21	76.1	> 100	39.7	89.1	81.3	23.3	67.7	> 100		> 100	59.9	> 100	> 100							
Cc1cc2c3c(ccc4ncc(c43)CN2c2ccc(NS(C)(=O)=O)cc2)[nH]1	44.3		> 100	> 100	46.1	> 100	> 100	> 100		> 100	> 100	> 100	> 100							
O=[N+]([O-])c1cc(Cl)ccc1S(=O)(=O)c1ccccc1	> 100	> 100	> 100	> 100	> 100	> 100	> 100	> 100		> 100	> 100	> 100	> 100							
Nc1nc(Nc2ccc(Cl)cc2)sc1C(=O)c1cc2ccccc2oc1=O	68.8	76.8	> 100	> 100	42.7			> 100		> 100	> 100		> 100							
CCOc1ccc(N=Cc2cc(OC)c(OC)c(OC)c2)cc1	> 100	> 100	> 100	32.1	> 100	> 100	> 100	> 100		> 100		> 100								
CC1=NN(C(=O)c2ccc(Cl)cc2)C(=O)/C1=C/c1cccc(O)c1		> 100	> 100	> 100	> 100	> 100	> 100	> 100		> 100		> 100								
CC(C)(C)OC(=O)C1/C(=C/CO)CN1C(=O)OC(C)(C)C (stereo not given)		> 100	> 100	> 100	> 100	> 100	> 100		> 100	> 100	> 100	> 100								
CN1c2ccccc2C2c3c(O)ccc(O)c3C=C([N+](=O)[O-])C21 (stereo not given)	> 24.2		1.44		5.96	7.63	8.29	4.84	> 24.8	6.41	> 20									
Cc1c2n(c3ccccc13)CC1C2N(C)OC1(C)C (stereo not given)	> 100	> 100	> 100		> 100	> 100	> 100		> 100	> 100		> 100								

SMILES	TGI [1] [µM]	TGI [2] [µM]	TGI [3] [µM]	TGI [4] [µM]	TGI [5] [µM]	TGI [6] [µM]	TGI [7] [µM]	TGI [8] [µM]	TGI [9] [µM]	TGI [10] [µM]	TGI [11] [µM]	TGI [12] [µM]	TGI [13] [µM]	GI50 [13] [µM]	GI50 [3] [µM]	GI50 [5] [µM]	GI50 [7] [µM]	GI50 [8] [µM]	GI50 [11] [µM]	GI50 [12] [µM]
CCCCCCCCCCCCCCCCCCNc1ccn(C2OC(CO)C(OP(=O)(O)OCC3CCC(n4ccc(N)nc4=O)O3)C2O)c(=O)n1 (stereo not given)	> 100	94.8	> 100	> 100	> 100	> 100	> 100	> 100		> 100	> 100	> 100	> 100							
CC(C)(C)C1CCC2c3c([nH]c4ccccc34)C3C(=O)N(c4ccc(Br)cc4)C(=O)C3C2C1 (stereo not given)	54.8	> 100	> 100	49.4	39.5	63.2	63.1			36.3		42.9								
CCC12C=CCN3CC[C@]4(C(=C(C(=O)OC)[C@@H]1Nc1ccn(C5OC(COC(C)=O)C(OC(C)=O)C5OC(C)=O)c(=O)n1)Nc1ccccc14)C32 (stereo not given in full)	7.63	9.74	8.51	9.41	8.83	14.3	10.2	7.69	10.2	6.83		11								
COc1cc2c[n+](C)c3c4ccccc4ccc3c2cc1OC	18.7	5.53	42.6	> 63.6	37.4	> 48.2	> 73.3	10.3		> 100	> 100	16.8	14							
Clc1ccc2c(NCCNc3nc(-c4ccccc4)cc(-c4ccccc4)n3)ccnc2c1			3.16		3.05		3.39	3.59			3.6	4.3	3.45	1.79	1.71	1.61	1.76	1.96	1.77	2.07
CC1C(c2ccccc2O)c2cc3c(cc2OC1N1CCCC1)OCO3 (stereo not given)	88	80.2	36.8	44.4	49.8	> 100	74.9	> 100	54.2	> 100		> 100	> 100							
COc1cc(/C=C2\NC(=O)N(/C=C3\C(=O)Oc4ccccc4C3=O)C2=O)ccc1O	77		> 100	> 100	> 100	> 100	> 100	> 100		> 100	> 100	> 100	> 100							
Cc1[nH]n(-c2ccccc2)c(=S)c1C(=O)c1ccccc1	> 100	> 100	93.7	> 100		54.9	> 100	> 100		> 100		> 100								
COc1ccc(C2=C(OC(C)=O)c3cccn3-c3ccccc3S2)cc1	> 10	> 10	> 10	> 10	> 10		5.03		> 10	> 10		> 10	> 10							
Nc1nc(=O)n(C2OC(CO)C(O)C2O)cc1F (stereo not given)	> 56.4			> 100	0.175	> 40.9	> 100	> 100		> 100	> 100	> 100								
Cc1ccc2c(c1)NC(=O)C(N=[N+]=[N-])(c1ccccc1)C2=O (stereo not given)	> 100	71.6	33	> 100	> 100	95.3	78.1	74.6	56.7	52.2		58.7								
O=[N+]([O-])C(=C1Nc2ccccc2N1)C(Cl)=C(Cl)Cl	12.4	> 100	> 100	> 100	> 100	> 100	> 100	> 100	> 100	> 100		> 100	> 100							
CC(C)NC(C)Cc1ccccc1 (stereo not given)	> 100	> 100	> 100	> 100	> 100	> 100	> 100	> 100	> 100	> 100		> 100								
CCC(C)(C)NC1=C(NC(C)=O)C(=O)c2ccccc2C1=O	> 75	> 75	> 75	> 75	> 75	> 75	> 75	> 75	> 75	> 75		> 75								
CC1=CCC2(C#N)CCC1C2=O (stereo not given)		> 100	> 100	> 100	> 100	> 100	> 100	> 100	> 100	> 100		> 100								
